# Laboratory results published in the supplement of paper PMC11061612.
# Legend:
# Assay in all cases: combination Emax (second highest fraction inhibited in the dose matrix, 72 h); higher = more inhibition; extreme values may be limits of the assay
# [1] = system: HCC1806 (Breast Carcinoma)
# Outline: (§1)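 Bliss excess equals the observed combination effect minus the expected value EA + EB − EA·EB, where EA and EB are the effects of each agent alone. Combination Emax is the second-highest inhibition within the matrix. Inhibition was scaled from CellTiter-Glo 2.0 luminescence, with 0 set by vehicle wells and 1 by blank wells, after 72 hours of two-drug dosing of cells plated in 1536-well plates.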
# [2] = system: OVCA420 (Ovarian Carcinoma)
# Outline: as §1
# [3] = system: DEL (T-Cell Non-Hodgkin's Lymphoma)
# Outline: as §1
# [4] = system: EC-GI-10 (Esophageal Squamous Cell Carcinoma)
# Outline: as §1
# NB10 (Neuroblastoma) = system: NB10 (Neuroblastoma)
# Outline: as §1
# [5] = system: ME-1 (Acute Myeloid Leukemia)
# Outline: as §1
# [6] = system: UM-UC-3 (Bladder Carcinoma)
# Outline: as §1
# [7] = system: MFE-296 (Endometrial Carcinoma)
# Outline: as §1
# [8] = system: TE-9 (Esophageal Squamous Cell Carcinoma)
# Outline: as §1
# [9] = system: Calu-3 (Lung Adenocarcinoma)
# Outline: as §1
# T98G (Glioblastoma) = system: T98G (Glioblastoma)
# Outline: as §1
# [10] = system: RC-K8 (B-Cell Non-Hodgkin's Lymphoma)
# Outline: as §1
Compound,combination Emax [1],combination Emax [2],combination Emax [3],combination Emax [4],combination Emax (NB10 (Neuroblastoma)),combination Emax [5],combination Emax [6],combination Emax [7],combination Emax [8],combination Emax [9],combination Emax (T98G (Glioblastoma)),combination Emax [10]
"COc1nnc2ccc(N3CCC(c4ccc(OCCN5CCN(C)C(=O)[C@H]5C)cc4)CC3)nn12 [AZD5153] + CC1(C)CCC(CN2CCN(c3ccc(C(=O)NS(=O)(=O)c4ccc(NCC5CCOCC5)c([N+](=O)[O-])c4)c(Oc4cnc5[nH]ccc5c4)c3)CC2)=C(c2ccc(Cl)cc2)C1 [Venetoclax] (first compound max 1 µM, 7x7, partner max 1 µM)",0.645,0.792,0.809,0.251,0.527,1,0.278,0.27,0.13,0.621,0.491,0.738
"COc1nnc2ccc(N3CCC(c4ccc(OCCN5CCN(C)C(=O)[C@H]5C)cc4)CC3)nn12 [AZD5153] + CCN(CCO)CCCOc1ccc2c(Nc3cc(CC(=O)Nc4cccc(F)c4)[nH]n3)ncnc2c1 [AZD2811] (first compound max 1 µM, 7x7, partner max 1 µM)",0.676,0.773,0.905,0.425,0.571,0.434,0.459,0.333,0.218,0.635,0.491,0.728
"COc1nnc2ccc(N3CCC(c4ccc(OCCN5CCN(C)C(=O)[C@H]5C)cc4)CC3)nn12 [AZD5153] + C[C@@H]1COCCN1C2=NC(=NC(=C2)C3(CC3)[S@](=N)(=O)C)C4=C5C=CNC5=NC=C4 [AZD6738] (first compound max 1 µM, 7x7, partner max 10 µM)",0.919,0.807,1,0.604,0.903,0.651,0.621,0.74,0.271,0.719,0.798,0.896
"COc1nnc2ccc(N3CCC(c4ccc(OCCN5CCN(C)C(=O)[C@H]5C)cc4)CC3)nn12 [AZD5153] + Cc1c2c(nn1C)CSCc1cc(n(C)n1)CSc1cc(c3ccccc3c1)OCCCc1c(C(=O)O)n(C)c3c-2c(Cl)ccc13 [AZD5991] (first compound max 1 µM, 7x7, partner max 1 µM)",0.755,0.771,1,0.671,0.651,0.793,0.281,0.878,0.57,0.677,0.459,0.832
"COc1nnc2ccc(N3CCC(c4ccc(OCCN5CCN(C)C(=O)[C@H]5C)cc4)CC3)nn12 [AZD5153] + Cn1cnc2c(F)c(Nc3ccc(Br)cc3Cl)c(C(=O)NOCCO)cc21 [Selumetinib] (first compound max 1 µM, 7x7, partner max 10 µM)",0.687,0.819,0.923,0.526,0.785,0.583,0.527,0.356,0.35,0.887,0.476,0.781
"Cc1c2c(nn1C)CSCc1cc(n(C)n1)CSc1cc(c3ccccc3c1)OCCCc1c(C(=O)O)n(C)c3c-2c(Cl)ccc13 [AZD5991] + C=CCn1c(=O)c2cnc(Nc3ccc(N4CCN(C)CC4)cc3)nc2n1-c1cccc(C(C)(C)O)n1 [AZD1775] (first compound max 1 µM, partner max 1 µM)",0.972,0.399,1,0.946,0.6,0.793,0.271,0.585,0.366,0.197,0.674,0.617
"Cc1c2c(nn1C)CSCc1cc(n(C)n1)CSc1cc(c3ccccc3c1)OCCCc1c(C(=O)O)n(C)c3c-2c(Cl)ccc13 [AZD5991] + CC1(C)CCC(CN2CCN(c3ccc(C(=O)NS(=O)(=O)c4ccc(NCC5CCOCC5)c([N+](=O)[O-])c4)c(Oc4cnc5[nH]ccc5c4)c3)CC2)=C(c2ccc(Cl)cc2)C1 [Venetoclax] (first compound max 1 µM, 7x7, partner max 1 µM)",0.596,0.187,1,0.448,0.481,1,0.171,0.593,0.508,0.135,0.283,0.185
"Cc1c2c(nn1C)CSCc1cc(n(C)n1)CSc1cc(c3ccccc3c1)OCCCc1c(C(=O)O)n(C)c3c-2c(Cl)ccc13 [AZD5991] + CCN(CCO)CCCOc1ccc2c(Nc3cc(CC(=O)Nc4cccc(F)c4)[nH]n3)ncnc2c1 [AZD2811] (first compound max 1 µM, 7x7, partner max 1 µM)",0.776,0.235,1,0.891,0.405,0.733,0.266,0.45,0.251,0.17,0.585,0.379
"Cc1c2c(nn1C)CSCc1cc(n(C)n1)CSc1cc(c3ccccc3c1)OCCCc1c(C(=O)O)n(C)c3c-2c(Cl)ccc13 [AZD5991] + CN(C)CCCOc1ccc(-c2ccc3ncc4c(c3c2)n(C2CCOCC2)c(=O)n4C)cn1 [AZD0156] (first compound max 1 µM, 7x7, partner max 1 µM)",0.833,0.191,1,0.747,0.273,0.803,0.211,0.287,0.188,0.15,0.283,0.314
"Cc1c2c(nn1C)CSCc1cc(n(C)n1)CSc1cc(c3ccccc3c1)OCCCc1c(C(=O)O)n(C)c3c-2c(Cl)ccc13 [AZD5991] + C[C@@H]1COCCN1C2=NC(=NC(=C2)C3(CC3)[S@](=N)(=O)C)C4=C5C=CNC5=NC=C4 [AZD6738] (first compound max 1 µM, 7x7, partner max 10 µM)",0.961,0.494,1,0.819,0.86,0.798,0.401,0.791,0.366,0.275,0.875,0.781
"Cc1c2c(nn1C)CSCc1cc(n(C)n1)CSc1cc(c3ccccc3c1)OCCCc1c(C(=O)O)n(C)c3c-2c(Cl)ccc13 [AZD5991] + C[C@@H](Nc1cc(F)cc(F)c1)c1cc(C(=O)N(C)C)cc2c(=O)cc(N3CCOCC3)oc12 [AZD8186] (first compound max 1 µM, 7x7, partner max 3 µM)",0.6,0.282,1,0.559,0.179,0.787,0.311,0.265,0.135,0.175,0.501,0.2
"Cc1c2c(nn1C)CSCc1cc(n(C)n1)CSc1cc(c3ccccc3c1)OCCCc1c(C(=O)O)n(C)c3c-2c(Cl)ccc13 [AZD5991] + Cc1cc2ncnn2cc1Nc1ncc2c(n1)n(C1CCOCC1)c(=O)n2C [AZD7648] (first compound max 1 µM, 7x7, partner max 10 µM)",0.515,0.201,1,0.564,0.258,0.755,0.226,0.267,0.214,0.201,0.361,0.425
"Cc1c2c(nn1C)CSCc1cc(n(C)n1)CSc1cc(c3ccccc3c1)OCCCc1c(C(=O)O)n(C)c3c-2c(Cl)ccc13 [AZD5991] + Cn1cnc2c(F)c(Nc3ccc(Br)cc3Cl)c(C(=O)NOCCO)cc21 [Selumetinib] (first compound max 1 µM, 7x7, partner max 3 µM)",0.667,0.498,1,0.758,0.396,0.906,0.28,0.256,0.162,0.121,0.249,0.239
"NC1(C(=O)N[C@@H](CCO)c2ccc(Cl)cc2)CCN(c2ncnc3[nH]ccc23)CC1 [Capivasertib] + CC(=O)c1c(C)c2cnc(Nc3ccc(N4CCNCC4)cn3)nc2n(C2CCCC2)c1=O [Palbociclib] (first compound max 10 µM, 7x7, partner max 10 µM)",0.516,0.412,0.892,0.665,0.369,0.257,0.491,0.493,0.227,0.396,0.6,0.435
"NC1(C(=O)N[C@@H](CCO)c2ccc(Cl)cc2)CCN(c2ncnc3[nH]ccc23)CC1 [Capivasertib] + CC(C)n1c(=O)n(C)c2cnc3cc(F)c(-c4ccc(OCCCN5CCCCC5)nc4)cc3c21 [AZD1390] (first compound max 10 µM, 7x7, partner max 0.3 µM)",0.267,0.21,0.44,0.574,0.221,0.237,0.311,0.488,0.17,0.288,0.449,0.224
"NC1(C(=O)N[C@@H](CCO)c2ccc(Cl)cc2)CCN(c2ncnc3[nH]ccc23)CC1 [Capivasertib] + CCN(CCO)CCCOc1ccc2c(Nc3cc(CC(=O)Nc4cccc(F)c4)[nH]n3)ncnc2c1 [AZD2811] (first compound max 10 µM, 7x7, partner max 1 µM)",0.378,0.253,0.859,0.754,0.452,0.199,0.298,0.549,0.267,0.358,0.437,0.53
"NC1(C(=O)N[C@@H](CCO)c2ccc(Cl)cc2)CCN(c2ncnc3[nH]ccc23)CC1 [Capivasertib] + COc1nnc2ccc(N3CCC(c4ccc(OCCN5CCN(C)C(=O)[C@H]5C)cc4)CC3)nn12 [AZD5153] (first compound max 10 µM, 7x7, partner max 1 µM)",0.556,0.762,0.893,0.543,0.527,0.402,0.411,0.694,0.354,0.749,0.699,0.761
"NC1(C(=O)N[C@@H](CCO)c2ccc(Cl)cc2)CCN(c2ncnc3[nH]ccc23)CC1 [Capivasertib] + C[C@@H]1COCCN1C2=NC(=NC(=C2)C3(CC3)[S@](=N)(=O)C)C4=C5C=CNC5=NC=C4 [AZD6738] (first compound max 10 µM, 7x7, partner max 10 µM)",0.947,0.516,1,0.7,0.811,0.277,0.53,0.641,0.232,0.512,0.867,0.775
